Calls of active or inactive are those of the source. The rule behind the calls is not given here.
Legend:
Mus musculus [1] = assay: Locomotor activity in CD1 mouse assessed as stimulation at 0.3 mg/kg, ip after 2 hrs relative to control; type: functional; settings: route intraperitoneal
Rattus norvegicus [2] = assay: Drug discrimination effect in CD Albino rat assessed as percent of rat choosing cocaine lever at 0.17 mg/kg, ip; type: functional; settings: route intraperitoneal
Mus musculus [3] = assay: Locomotor activity in CD1 mouse assessed as stimulation at 0.1 mg/kg, ip after 4 hrs relative to control; type: functional; settings: route intraperitoneal
Mus musculus [4] = assay: Locomotor activity in CD1 mouse assessed as stimulation at 1 mg/kg, ip after 1 hr relative to control; type: functional; settings: route intraperitoneal
Mus musculus [5] = assay: Activity in CD1 mouse assessed as hyperactivity at 1 mg/kg, ip after 4 hrs; type: functional, organism-based; parameters: dose 1 mg/kg
Mus musculus [6] = assay: Locomotor activity in CD1 mouse assessed as stimulation at 0.03 mg/kg, ip after 3 hrs relative to control; type: functional; settings: route intraperitoneal
Rattus norvegicus [7] = assay: Drug discrimination effect in CD Albino rat assessed as percent of rat choosing cocaine lever at 0.3 mg/kg, ip; type: functional; settings: route intraperitoneal
Mus musculus [8] = assay: Activity in CD1 mouse assessed as stereotypy at 1 mg/kg, ip after 4 hrs; type: functional, organism-based; parameters: dose 1 mg/kg
Mus musculus [9] = assay: Locomotor activity in ip dosed CD1 mouse in peak hour; type: functional
Mus musculus [10] = assay: Activity in CD1 mouse assessed as circling at 100 mg/kg, ip after 4 hrs; type: functional, organism-based; parameters: dose 100 mg/kg
Mus musculus [11] = assay: Locomotor activity in CD1 mouse assessed as stimulation at 0.03 mg/kg, ip after 4 hrs relative to control; type: functional; settings: route intraperitoneal
Mus musculus [12] = assay: Locomotor activity in CD1 mouse assessed as stimulation at 1 mg/kg, ip after 2 hrs relative to control; type: functional; settings: route intraperitoneal
[13] = molecular target: Sodium-dependent serotonin transporter (Homo sapiens, UniProt P31645)
Description: Displacement of [3H]paroxetine from 5HTT

Mus musculus [14] = assay: Locomotor activity in CD1 mouse assessed as stimulation at 0.1 mg/kg, ip after 3 hrs relative to control; type: functional; settings: route intraperitoneal
Mus musculus [15] = assay: Locomotor activity in CD1 mouse assessed as stimulation at 1 mg/kg, ip after 4 hrs relative to control; type: functional; settings: route intraperitoneal
Rattus norvegicus [16] = assay: Drug discrimination effect in CD Albino rat assessed as percent of rat choosing cocaine lever at 0.1 mg/kg, ip; type: functional; settings: route intraperitoneal
Mus musculus [17] = assay: Locomotor activity in CD1 mouse assessed as stimulation at 0.3 mg/kg, ip after 1 hr relative to control; type: functional; settings: route intraperitoneal
Mus musculus [18] = assay: Activity in CD1 mouse assessed as circling at 10 mg/kg, ip after 4 hrs; type: functional, organism-based; parameters: dose 10 mg/kg
Mus musculus [19] = assay: Activity in CD1 mouse assessed as stereotypy at 100 mg/kg, ip after 4 hrs; type: functional, organism-based; parameters: dose 100 mg/kg
Rattus norvegicus [20] = assay: Cocaine discrimination in ip dosed CD Albino rat; type: functional
Mus musculus [21] = assay: Locomotor activity in CD1 mouse assessed as stimulation at 0.3 mg/kg, ip after 4 hrs relative to control; type: functional; settings: route intraperitoneal
Mus musculus [22] = assay: Locomotor activity in CD1 mouse assessed as stimulation at 0.1 mg/kg, ip after 1 hr relative to control; type: functional; settings: route intraperitoneal
[23] = molecular target: Sodium-dependent dopamine transporter (Homo sapiens, UniProt Q01959); assay: Displacement of [3H]WIN-35428 from DAT
Mus musculus [24] = assay: Locomotor activity in CD1 mouse assessed as stimulation at 0.3 mg/kg, ip after 3 hrs relative to control; type: functional; settings: route intraperitoneal
Mus musculus [25] = assay: Locomotor activity in CD1 mouse assessed as stimulation at 0.03 mg/kg, ip after 1 hr relative to control; type: functional; settings: route intraperitoneal
Mus musculus [26] = assay: Locomotor activity in CD1 mouse assessed as stimulation at 0.1 mg/kg, ip after 2 hrs relative to control; type: functional; settings: route intraperitoneal
Mus musculus [27] = assay: Locomotor activity in CD1 mouse assessed as stimulation at 1 mg/kg, ip after 3 hrs relative to control; type: functional; settings: route intraperitoneal
Mus musculus [28] = assay: Locomotor activity in CD1 mouse assessed as stimulation at 0.03 mg/kg, ip after 2 hrs relative to control; type: functional; settings: route intraperitoneal
Mus musculus [29] = assay: Activity in CD1 mouse assessed as stereotypy at 10 mg/kg, ip after 4 hrs; type: functional, organism-based; parameters: dose 10 mg/kg
Mus musculus [30] = assay: Locomotor activity in CD1 mouse assessed as stimulation at 3 mg/kg, ip after 1 hr relative to control; type: functional; settings: route intraperitoneal
Rattus norvegicus [31] = assay: Drug discrimination effect in CD Albino rat assessed as percent of rat choosing cocaine lever at 3 mg/kg, ip; type: functional; settings: route intraperitoneal
Mus musculus [32] = assay: Locomotor activity in CD1 mouse assessed as stimulation at 10 mg/kg, ip after 2 hrs relative to control; type: functional; settings: route intraperitoneal
Mus musculus [33] = assay: Locomotor activity in CD1 mouse assessed as stimulation at 30 mg/kg, ip after 4 hrs relative to control; type: functional; settings: route intraperitoneal
Mus musculus [34] = assay: Locomotor activity in CD1 mouse assessed as stimulation at 3 mg/kg, ip after 3 hrs relative to control; type: functional; settings: route intraperitoneal
Rattus norvegicus [35] = assay: Drug discrimination effect in CD Albino rat assessed as percent of rat choosing cocaine lever at 1 mg/kg, ip; type: functional; settings: route intraperitoneal
Mus musculus [36] = assay: Locomotor activity in CD1 mouse assessed as stimulation at 30 mg/kg, ip after 3 hrs relative to control; type: functional; settings: route intraperitoneal
Rattus norvegicus [37] = assay: Drug discrimination effect in CD Albino rat assessed as percent of rat choosing cocaine lever at 1.7 mg/kg, ip; type: functional; settings: route intraperitoneal
Mus musculus [38] = assay: Locomotor activity in CD1 mouse assessed as stimulation at 30 mg/kg, ip after 1 hr relative to control; type: functional; settings: route intraperitoneal
Mus musculus [39] = assay: Activity in CD1 mouse assessed as stimulation at 1 mg/kg, ip after 4 hrs; type: functional, organism-based; parameters: dose 1 mg/kg
Mus musculus [40] = assay: Locomotor activity in CD1 mouse assessed as stimulation at 3 mg/kg, ip after 4 hrs relative to control; type: functional; settings: route intraperitoneal
Rattus norvegicus [41] = assay: Drug discrimination effect in CD Albino rat assessed as percent of rat choosing cocaine lever at 5.6 mg/kg, ip; type: functional; settings: route intraperitoneal
Mus musculus [42] = assay: Locomotor activity in CD1 mouse assessed as stimulation at 30 mg/kg, ip after 2 hrs relative to control; type: functional; settings: route intraperitoneal
Mus musculus [43] = assay: Activity in CD1 mouse assessed as hyperactivity at 10 mg/kg, ip after 4 hrs; type: functional, organism-based; parameters: dose 10 mg/kg
Mus musculus [44] = assay: Locomotor activity in CD1 mouse assessed as stimulation at 3 mg/kg, ip after 2 hrs relative to control; type: functional; settings: route intraperitoneal
Mus musculus [45] = assay: Locomotor activity in CD1 mouse assessed as stimulation at 10 mg/kg, ip after 3 hrs relative to control; type: functional; settings: route intraperitoneal
Mus musculus [46] = assay: Locomotor activity in CD1 mouse assessed as stimulation at 10 mg/kg, ip after 1 hr relative to control; type: functional; settings: route intraperitoneal
Mus musculus [47] = assay: Locomotor activity in CD1 mouse assessed as stimulation at 10 mg/kg, ip after 4 hrs relative to control; type: functional; settings: route intraperitoneal

Chain of Sodium-dependent serotonin transporter (P31645 whole entry): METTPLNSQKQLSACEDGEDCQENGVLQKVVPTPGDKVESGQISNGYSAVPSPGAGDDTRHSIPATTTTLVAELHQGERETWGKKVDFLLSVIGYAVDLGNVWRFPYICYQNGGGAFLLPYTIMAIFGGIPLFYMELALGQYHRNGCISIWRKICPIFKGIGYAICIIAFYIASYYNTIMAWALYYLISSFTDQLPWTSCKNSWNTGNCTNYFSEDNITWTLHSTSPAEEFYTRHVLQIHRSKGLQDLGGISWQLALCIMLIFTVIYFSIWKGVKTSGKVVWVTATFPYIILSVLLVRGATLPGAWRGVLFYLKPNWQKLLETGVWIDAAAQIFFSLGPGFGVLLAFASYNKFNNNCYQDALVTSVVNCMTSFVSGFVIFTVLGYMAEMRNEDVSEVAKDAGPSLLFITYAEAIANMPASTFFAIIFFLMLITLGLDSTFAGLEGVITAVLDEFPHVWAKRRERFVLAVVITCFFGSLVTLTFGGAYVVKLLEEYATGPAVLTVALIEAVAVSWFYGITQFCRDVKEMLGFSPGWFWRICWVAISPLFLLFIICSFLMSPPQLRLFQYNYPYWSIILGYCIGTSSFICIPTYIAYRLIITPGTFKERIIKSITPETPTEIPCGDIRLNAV
Chain of Sodium-dependent dopamine transporter (Q01959 whole entry): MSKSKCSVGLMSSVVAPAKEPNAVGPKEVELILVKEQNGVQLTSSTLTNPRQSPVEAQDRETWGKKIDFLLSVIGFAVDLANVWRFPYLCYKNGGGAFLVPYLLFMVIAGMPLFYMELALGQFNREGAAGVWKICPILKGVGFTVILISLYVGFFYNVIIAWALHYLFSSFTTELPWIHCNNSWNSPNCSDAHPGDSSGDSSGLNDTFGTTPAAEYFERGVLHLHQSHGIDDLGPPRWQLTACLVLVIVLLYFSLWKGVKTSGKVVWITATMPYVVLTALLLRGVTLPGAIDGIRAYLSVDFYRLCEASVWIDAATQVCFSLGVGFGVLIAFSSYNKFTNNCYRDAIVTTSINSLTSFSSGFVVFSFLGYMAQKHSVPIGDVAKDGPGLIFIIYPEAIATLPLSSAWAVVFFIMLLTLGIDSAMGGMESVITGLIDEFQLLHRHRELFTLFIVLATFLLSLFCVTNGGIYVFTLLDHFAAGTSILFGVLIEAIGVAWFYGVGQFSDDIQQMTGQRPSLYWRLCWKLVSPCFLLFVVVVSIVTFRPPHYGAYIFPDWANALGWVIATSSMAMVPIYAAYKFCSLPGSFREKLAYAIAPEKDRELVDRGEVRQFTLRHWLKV

`COC(=O)[C@@H]1C2CCC(C[C@@H]1c1ccc(Br)cc1)N2C` (stereo not given in full) was tested, and the Activity (Mus musculus [1]) was 598%, the Activity (Rattus norvegicus [2]) was 50% and the Activity (Mus musculus [3]) was 116%. For the same compound, the Activity (Mus musculus [4]) was 258%, the Activity (Mus musculus [5]) was “Active” and the Activity (Mus musculus [6]) was 9%. The Activity (Rattus norvegicus [7]) was 100%, the Activity (Mus musculus [8]) was “Active” and the ED50 (Mus musculus [9]) was 0.1 mg/kg. The Activity (Mus musculus [10]) was “Active”, the Activity (Mus musculus [11]) was -43% and the Activity (Mus musculus [12]) was 35%. It also gave an IC50 [13] of 10.6 nM, a Ki [13] of 0.96 nM and an Activity (Mus musculus [14]) of 81%. The Activity (Mus musculus [15]) was 656%, the Activity (Rattus norvegicus [16]) was 14% and the Activity (Mus musculus [17]) was 259%. The Activity (Mus musculus [18]) was “Active”, the Activity (Mus musculus [19]) was “Active” and the ED50 (Rattus norvegicus [20]) was 0.17 mg/kg. It also gave an Activity (Mus musculus [21]) of 834%, an Activity (Mus musculus [22]) of -38% and an IC50 [23] of 1.7 nM. For the same compound, the Activity (Mus musculus [24]) was 869%, the Activity (Mus musculus [25]) was -30% and the Activity (Mus musculus [26]) was 29%. For the same compound, the Activity (Mus musculus [27]) was 302%, the Activity (Mus musculus [28]) was -39% and the Activity (Mus musculus [29]) was “Active”.
With `COC(=O)[C@@H]1C2CCC(C[C@H]1c1ccc(Br)cc1)N2C` (stereo not given in full) the Activity (Mus musculus [30]) was 60%, the Activity (Rattus norvegicus [31]) was 50% and the Activity (Mus musculus [4]) was 35%. It also gave an Activity (Mus musculus [32]) of 457%, an Activity (Mus musculus [33]) of 883% and an Activity (Mus musculus [34]) of 100%. The ED50 (Mus musculus [9]) was 6.6 mg/kg, the Activity (Mus musculus [10]) was “Active” and the Activity (Rattus norvegicus [35]) was 13%. The Activity (Mus musculus [12]) was -26%, the Activity (Mus musculus [36]) was 1275% and the Activity (Rattus norvegicus [37]) was 13%. For the same compound, the Activity (Mus musculus [38]) was 518%, the Activity (Mus musculus [39]) was “Active” and the IC50 [13] was 84 nM. It also gave a Ki [13] of 20.6 nM, an Activity (Mus musculus [15]) of -12% and an Activity (Mus musculus [40]) of 109%. The Activity (Rattus norvegicus [41]) was 88%, the Activity (Mus musculus [42]) was 861% and the Activity (Mus musculus [43]) was “Active”. The Activity (Mus musculus [19]) was “Active”, the ED50 (Rattus norvegicus [20]) was 2.98 mg/kg and the Activity (Mus musculus [44]) was 88%. The Activity (Mus musculus [45]) was 686%, the IC50 [23] was 1.7 nM and the Activity (Mus musculus [27]) was -56%. For the same compound, the Activity (Mus musculus [46]) was 353%, the Activity (Mus musculus [29]) was “Active” and the Activity (Mus musculus [47]) was 781%.
